Results reported in patent publication US5436238A, “Halichondrins and related compounds” (President and Fellows of Harvard College, priority 1993, dated 1995).

What was measured:
DK-l cells = experiment: In vitro growth inhibition, DK-l ras-transforming fibroblasts; assay type: cell-based; details: human ras-transforming fibroblasts
Method: (§1) Synthetic halichondrin B I was tested in growth inhibition assays against several different tumor cell lines to obtain IC50 values. For comparison, the National Cancer Instititute reported growth inhibitory effects of natural halichondrin B against L1210 murine leukemia cells at IC50 =0.3 nM [J. Biol. Chem. 266:15882-15889 (1991)] and Hirata and Uemura reported IC50 =0.08 nM against B-16 murine melanoma cells [Pure Appl. Chem. 58:701-710 (1986)]. Both references are hereby incorporated in their entirety.

MCF-7 cells = experiment: In vitro growth inhibition, MCF-7 breast carcinoma cells; assay type: cell-based; details: MCF-7, human breast carcinoma
Method: as §1

OVCA 433 cells = experiment: In vitro growth inhibition, OVCA 433 ovarian carcinoma cells; assay type: cell-based; details: OVCA 433, human ovarian carcinoma
Method: as §1

SK-OV-3 cells = experiment: In vitro growth inhibition, SK-OV-3 ovarian carcinoma cells; assay type: cell-based; details: SK-OV-3, human ovarian carcinoma
Method: as §1

MG-63 cells = experiment: In vitro growth inhibition, MG-63 osteosarcoma cells; assay type: cell-based; details: MG-63, human osteosarcoma
Method: as §1

NIH:OVCAR-3 cells = experiment: In vitro growth inhibition, NIH:OVCAR-3 ovarian carcinoma cells; assay type: cell-based; details: NIH:OVCAR-3, human ovarian carcinoma
Method: as §1

LOX human melanoma cells = experiment: In vitro growth inhibition, LOX melanoma cells; assay type: cell-based; details: Table 1, LOX, synthetic halichondrin B
Method: as §1
In addition, several synthetic halichondrin-related compounds were tested. […] For the structures of compounds 13-16, see FIG. 3.

[1] = test system: L1210 murine leukemia cells; details: natural halichondrin B, J. Biol. Chem. 266:15882-15889 (1991), read-out: growth inhibitory effects, IC50; cited from earlier work
Caov-3 cells = experiment: In vitro growth inhibition, Caov-3 ovarian carcinoma cells; assay type: cell-based; details: Caov-3, human ovarian carcinoma
Method: as §1

HL-60 cells = experiment: In vitro growth inhibition, HL-60 monocytic leukemia cells; assay type: cell-based; details: HL-60, human monocytic leukemia
Method: as §1

[2] = test system: subcutaneous LOX human melanoma tumors; experiment: In vivo anti-tumor effect on subcutaneous LOX human melanoma tumors in nude mice
Method: Mice received 1×10^6 LOX cells via s.c. injection on day 0, with complete injection randomization across sexes and treatment groups. On days 3-7 and 10-14, male and female experimental mice received 25 μg/kg of synthetic halichondrin B 1 via i.p. injection in saline; controls received saline alone.

[3] = test system: B-16 murine melanoma cells; details: Pure Appl. Chem. 58:701-710 (1986), read-out: IC50 against B-16 cells; cited from earlier work
HT-29 cells = experiment: In vitro growth inhibition, HT-29 colon carcinoma cells; assay type: cell-based; details: HT-29, human colon carcinoma
Method: as §1

C=C1C[C@@H]2CC[C@@]34C[C@H]5O[C@H]6[C@@H](O3)[C@H]3O[C@H](CC[C@@H]3O[C@H]6[C@H]5O4)CC(=O)O[C@@H]3[C@@H](C)[C@@H]4O[C@@H]5C[C@]6(C[C@@H]7O[C@]8(C[C@H](C)[C@@H]9O[C@H]([C@@H](O)C[C@@H](O)CO)C[C@@H]9O8)C[C@H](C)[C@@H]7O6)O[C@@H]5C[C@@H]4O[C@H]3C[C@H]3O[C@@H](CC[C@@H]1O2)C[C@@H](C)C3=C [halichondrin B]
IC50 (DK-l cells): 0.18 nM | IC50 (MCF-7 cells): 0.2 nM | IC50 (OVCA 433 cells): 0.16 nM | IC50 (SK-OV-3 cells): 0.12 nM | IC50 (MG-63 cells): 0.13 nM | IC50 (NIH:OVCAR-3 cells): 0.06 nM | IC50 (LOX human melanoma cells): 0.08 nM | IC50 [1]: 0.3 nM | IC50 (Caov-3 cells): 0.25 nM | IC50 (HL-60 cells): 0.12 nM | tumor growth ([2]; 25 μg/kg i.p. in saline, days 3-7 and 10-14, both sexes): prevented tumor growth almost completely in both sexes | tumor growth after initial development period ([2]; 25 μg/kg i.p., days 3-7 and 10-14, after initial development into visible but very small tumors): failed to grow after an initial period of development into visible but very small tumors | tumor regression ([2]; 25 μg/kg i.p., after the initial development period): actually regressed | IC50 [3]: 0.08 nM | IC50 (HT-29 cells): 0.19 nM
